Results published in patent publication US12337000B2, “Therapeutic modulators of the reverse mode of ATP synthase” (priority 2017, dated 2025).

Legend:
[1] = system: HL-1 cardiac muscle cell line; settings: 3 μM, HL-1 cells, data from [12]; cited from earlier work
[2] = Human pharmacokinetics of oral almitrine dimesylate; format: in vivo; settings: 0.6*17, after 200 mg oral dose
[3] = humans [121]; cited from earlier work
[4] = cited from earlier work
[5] = target: F1F0 ATP synthesis and hydrolysis (Homo sapiens, UniProt P06576+P25705); settings: isolated mitochondria, no matter how great the concentration [114]; cited from earlier work
[6] = 30 year pharmacovigilance survey in France, oral, multi-year use [120]

SMILES: CC[C@H]1/C=C/C=C/C[C@@H](C)[C@H](O)[C@@](C)(O)C(=O)[C@@H](C)[C@H](O)[C@@H](C)C(=O)[C@@H](C)[C@H](O)[C@@H](C)/C=C/C(=O)O[C@@H]2[C@H](C)[C@H](CC1)O[C@@]1(O[C@@H](C[C@@H](C)O)[C@@H](C)CC1=O)[C@H]2C [Oligomycin B]
- change of O2 consumption [1]: −40%

SMILES: C=CCNc1nc(NCC=C)nc(N2CCN(C(c3ccc(F)cc3)c3ccc(F)cc3)CC2)n1 [almitrine]
- corresponding tissue concentration (assuming uniform) [2]: ~10 µM
- volume of distribution (VD) [3]: 17 L/kg
- peripheral neuropathy [4, 6]: 2,304 cases
- weight loss [4, 6]: 795 cases
- share of presenting cases categorised as serious [4, 120]: < 10%
- patients with reversible lactic acidosis and hepatic dysfunction ([4]; intravenous 459±155 mg within 24 hours, 25 patients [127]): 30%
- mean onset of adverse reactions ([4]; oral, chronic use [120]): 11 months
- maximal decrease in F1F0 ATP synthesis and hydrolysis [5]: ~60%
